Measured values reported in US20100286150A1, “LEVOSIMENDAN FOR USE IN TREATING CHRONIC VALVULAR DISEASE” (priority 2008, published 2010).

Test system: dogs diagnosed with chronic valvular disease (CVD)
Test: Double-blind placebo-controlled study of long-term efficacy, safety and survival in dogs with chronic valvular disease
Format: in vivo
Conditions: for Owner-reported symptom score (mean ± SD): score 0 (best) to 18 (worst), 0.05 mg/kg orally twice a day
Protocol: A double-blind placebo-controlled study was conducted for evaluating the long-term efficacy and safety of levosimendan and its effect on long-term survival in dogs diagnosed with chronic valvular disease (CVD). Dogs were randomised to receive either 0.05 mg/kg of levosimendan (n=40) or placebo (n=40) orally twice a day for 5 months. All dogs were allowed to receive their background therapy (ACE-inhibitors, diuretics, beta-blockers and/or digoxin). Quality of life, symptoms of CVD, safety and mortality assessment were conducted throughout the study.
Improvement in quality of life was determined by using a composite owner-reported symptom score (ORSS). ORSS is a composite variable that was calculated by summing scores for appetite, intolerance to exercise, daytime cough, nocturnal cough, and nocturnal restlessness. The owner-reported symptom score could range from 0 (best possible) to 18 (worst possible).

[1] = 0.05 mg/kg orally twice a day for 5 months, added to standard therapy, vs placebo, FIG. 1

C[C@@H]1CC(=O)NN=C1c1ccc(NN=C(C#N)C#N)cc1 [levosimendan, (−)-enantiomer of [[4-(1,4,5,6-tetrahydro-4-methyl-6-oxo-3-pyridazinyl)phenyl]hydrazono]propanedinitrile]
safety (0.05 mg/kg orally twice a day for 5 months in dogs with CVD): No significant safety concerns | mortality [1]: significantly reduced mortality | survival [1]: prolonged survival | quality of life over time compared to baseline assessments (0 months) (owner-reported symptom score, 0.05 mg/kg orally twice a day for 5 months): significantly improved | Owner-reported symptom score (mean ± SD) (time 0 months (baseline)): 5.6 ± 2.4 | Owner-reported symptom score (mean ± SD) (time 1 month): 4.1 ± 3.2 | Owner-reported symptom score (mean ± SD) (time 3 months): 4.4 ± 4.1 | Owner-reported symptom score (mean ± SD) (time 5 months): 4.4 ± 3.4
